Test system: GST-Bcl-2
Assay: TR-FRET binding assay, Bcl-2
Conditions: TR-FRET Ki values
How it was run: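 Compounds serially diluted in DMSO from 50 μM (2× starting concentration, 10% DMSO), mixed with GST-tagged protein, F-Bak peptide probe and Tb-labeled antibody, incubated 3 h at room temperature.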

SMILES	Binding selectivity ratio (Bcl-XL Ki/Bcl-2 Ki)
COC1CCN(c2ccc(S(=O)(=O)NC(=O)c3ccc(N4CCN(CC5=C(c6ccc(Cl)cc6)CC(C)(C)CC5)CC4)cc3Oc3ccc4[nH]ccc4c3)cc2[N+](=O)[O-])CC1 [EXAMPLE 271, 4-(4-{[2-(4-chlorophenyl)-4,4-dimethylcyclohex-1-en-1-yl]methyl}piperazin-1-yl)-2-(1H-indol-5-yloxy)-N-{[4-(4-methoxypiperidin-1-yl)-3-nitrophenyl]sulfonyl}benzamide]	>107.2
CC1(C)CCC(CN2CCN(c3ccc(C(=O)NS(=O)(=O)c4ccc(NCC5CCOC5)c([N+](=O)[O-])c4)c(Oc4cccc5[nH]cnc45)c3)CC2)=C(c2ccc(Cl)cc2)C1 (stereo not shown) [EXAMPLE 439, 2-(1H-benzimidazol-4-yloxy)-4-(4-{[2-(4-chlorophenyl)-4,4-dimethylcyclohex-1-en-1-yl]methyl}piperazin-1-yl)-N-({3-nitro-4-[(tetrahydrofuran-3-ylmethyl)amino]phenyl}sulfonyl)benzamide]	1496.8
CC1(C)CCC(CN2CCN(c3ccc(C(=O)NS(=O)(=O)c4ccc(N[C@H]5CC[C@H](N6CCOCC6)CC5)c([N+](=O)[O-])c4)c(Oc4ccc5[nH]ccc5c4)c3)CC2)=C(c2ccc(Cl)cc2)C1 [Example 178, Trans-4-(4-{[2-(4-chlorophenyl)-4,4-dimethylcyclohex-1-en-1-yl]methyl}piperazin-1-yl)-2-(1H-indol-5-yloxy)-N-({4-[(4-morpholin-4-ylcyclohexyl)amino]-3-nitrophenyl}sulfonyl)benzamide]	>2915.8
CC1(C)CCC(CN2CCN(c3ccc(C(=O)NS(=O)(=O)c4ccc(NCC5CCOCC5)c(C#N)c4)c(Oc4cccc5[nH]ccc45)c3)CC2)=C(c2ccc(Cl)cc2)C1 [EXAMPLE 366, 4-(4-{[2-(4-chlorophenyl)-4,4-dimethylcyclohex-1-en-1-yl]methyl}piperazin-1-yl)-N-({3-cyano-4-[(tetrahydro-2H-pyran-4-ylmethyl)amino]phenyl}sulfonyl)-2-(1H-indol-4-yloxy)benzamide]	>121.0
CC1(C)CCC(CN2CCN(c3ccc(C(=O)NS(=O)(=O)c4ccc(NCC5(CO)CCOCC5)c([N+](=O)[O-])c4)c(Oc4ccc5[nH]ccc5c4)c3)CC2)=C(c2ccc(Cl)cc2)C1 [EXAMPLE 232, 4-(4-{[2-(4-chlorophenyl)-4,4-dimethylcyclohex-1-en-1-yl]methyl}piperazin-1-yl)-N-{[4-({[4-(hydroxymethyl)tetrahydro-2H-pyran-4-yl]methyl}amino)-3-nitrophenyl]sulfonyl}-2-(1H-indol-5-yloxy)benzamide]	429.1
COCCCNc1ccc(S(=O)(=O)NC(=O)c2ccc(N3CCN(CC4=C(c5ccc(Cl)cc5)CC(C)(C)CC4)CC3)cc2Oc2cccc3[nH]ccc23)cc1[N+](=O)[O-] [EXAMPLE 318, 4-(4-{[2-(4-chlorophenyl)-4,4-dimethylcyclohex-1-en-1-yl]methyl}piperazin-1-yl)-2-(1H-indol-4-yloxy)-N-({4-[(3-methoxypropyl)amino]-3-nitrophenyl}sulfonyl)benzamide]	102.6
CC1(C)CC(c2ccc(Cl)cc2)=C(CN2CCN(c3ccc(C(=O)NS(=O)(=O)c4cnc(OCC5(F)CCOCC5)c(Cl)c4)c(Oc4cccc5[nH]ncc45)c3)CC2)CO1 [EXAMPLE 465, N-({5-chloro-6-[(4-fluorotetrahydro-2H-pyran-4-yl)methoxy]pyridin-3-yl}sulfonyl)-4-(4-{[4-(4-chlorophenyl)-6,6-dimethyl-5,6-dihydro-2H-pyran-3-yl]methyl}piperazin-1-yl)-2-(1H-indazol-4-yloxy)benzamide]	1472
